What follows are compounds tested against Beta-3 Adrenergic Receptor (Homo sapiens (Human), UniProt P13945) (assay: Homogeneous Time-Resolved Fluorescence (HTRF) cAMP antagonist assay, IC50 determination). Settings: CHO-K1 cells stably expressing recombinant receptor, isoproterenol at EC90.
Format: cell-based
Summary of the method: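 CHO-K1 cells stably expressing receptor, 1500 cells/well, preincubated briefly with 10-point 5-fold compound series (top final typically 10 or 100 μM) in PBS with 1 mM IBMX, then challenged with isoproterenol at EC90 for 1 h at room temperature. cAMP read by HTRF against on-plate standard curve; IC50 from dose-response.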

Beta-3 Adrenergic Receptor, sequence (P13945 whole entry, species assumed): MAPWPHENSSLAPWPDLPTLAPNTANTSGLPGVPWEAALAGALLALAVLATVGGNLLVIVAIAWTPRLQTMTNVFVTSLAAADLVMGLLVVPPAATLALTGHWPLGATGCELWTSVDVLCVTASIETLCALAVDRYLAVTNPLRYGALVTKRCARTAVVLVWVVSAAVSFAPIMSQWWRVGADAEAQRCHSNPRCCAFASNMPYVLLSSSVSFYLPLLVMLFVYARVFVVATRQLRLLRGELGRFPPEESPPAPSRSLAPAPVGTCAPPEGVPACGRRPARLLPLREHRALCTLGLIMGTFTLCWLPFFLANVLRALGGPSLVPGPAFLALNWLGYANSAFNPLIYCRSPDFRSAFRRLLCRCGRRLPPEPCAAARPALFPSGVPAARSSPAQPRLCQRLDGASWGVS

Point of comparison: `CNS(=O)(=O)c1cccc(OC[C@@H](O)CNC2COC3(CCN(S(=O)(=O)c4ccccn4)CC3)C2)c1` (stereo partly drawn) [Compound 322, 3-((2S)-2-hydroxy-3-(8-(pyridin-2-ylsulfonyl)-1-oxa-8-azaspiro[4.5]decan-3-ylamino)propoxy)-N-methylbenzenesulfonamide], IC50 73.5 nM. Against it:
- CNS(=O)(=O)c1cccc(OC[C@@H](O)CN[C@H]2COC3(CCN(S(=O)(=O)c4cccc5nsnc45)CC3)C2)c1 [Compound 245, 3-((S)-3-((R)-8-(benzo[c][1,2,5]thiadiazol-4-ylsulfonyl)-1-oxa-8-azaspiro[4.5]decan-3-ylamino)-2-hydroxypropoxy)-N-methylbenzenesulfonamide] — 4.7-fold lower, 15.5 nM
- CNS(=O)(=O)c1cccc(OC[C@@H](O)CNC2COC3(CCN(S(=O)(=O)c4cnc5c(c4)N(C)CCO5)CC3)C2)c1 (stereo partly drawn) [Compound 399, 3-((2S)-2-hydroxy-3-(8-(1-methyl-2,3-dihydro-1H-pyrido[2,3-b][1,4]oxazin-7-ylsulfonyl)-1-oxa-8-azaspiro[4.5]decan-3-ylamino)propoxy)-N-methylbenzenesulfonamide] — 3.6-fold lower, 20.2 nM
- CNS(=O)(=O)c1cccc(OC[C@@H](O)CNC2COC3(CCN(S(=O)(=O)c4ccc5c(c4)NCCO5)CC3)C2)c1 (stereo partly drawn) [Compound 355, 3-((2S)-3-(8-(3,4-dihydro-2H-benzo[b][1,4]oxazin-6-ylsulfonyl)-1-oxa-8-azaspiro[4.5]decan-3-ylamino)-2-hydroxypropoxy)-N-methylbenzenesulfonamide] — 4.3-fold lower, 17.2 nM
- CNS(=O)(=O)c1cccc(OC[C@@H](O)CNC2COC3(CCN(S(=O)(=O)c4cc(C)oc4C(F)(F)F)CC3)C2)c1 (stereo partly drawn) [Compound 162, 3-((2S)-2-hydroxy-3-(8-(5-methyl-2-(trifluoromethyl)furan-3-ylsulfonyl)-1-oxa-8-azaspiro[4.5]decan-3-ylamino)propoxy)-N-methylbenzenesulfonamide] — 1.7-fold lower, 42.6 nM
- CNS(=O)(=O)c1cccc(OC[C@@H](O)CN[C@H]2COC3(CCN(S(=O)(=O)c4cccc(-c5cc[nH]n5)c4)CC3)C2)c1 [Compound 296, 3-((S)-3-((R)-8-(3-(1H-pyrazol-3-yl)phenylsulfonyl)-1-oxa-8-azaspiro[4.5]decan-3-ylamino)-2-hydroxypropoxy)-N-methylbenzenesulfonamide] — 4.2-fold lower, 17.5 nM
- CCNCc1ccc(-c2cccc(S(=O)(=O)N3CCC4(CC3)CC(NC[C@H](O)COc3cccc(S(=O)(=O)NC)c3)CO4)c2)cc1 (stereo partly drawn) [Compound 302, 3-((2S)-3-(8-(4′-((ethylamino)methyl)biphenyl-3-ylsulfonyl)-1-oxa-8-azaspiro[4.5]decan-3-ylamino)-2-hydroxypropoxy)-N-methylbenzenesulfonamide] — 6.2-fold higher, 458 nM
- O=S(=O)(NCC1CCCNC1)c1cccc(OC[C@@H](O)CNC2COC3(CCN(S(=O)(=O)c4ccc5ccccc5c4)CC3)C2)c1 (stereo partly drawn) [Compound 168, 3-((2S)-2-hydroxy-3-(8-(naphthalen-2-ylsulfonyl)-1-oxa-8-azaspiro[4.5]decan-3-ylamino)propoxy)-N-(piperidin-3-ylmethyl)benzenesulfonamide] — 20-fold higher, 1470 nM
- CNS(=O)(=O)c1cccc(OC[C@@H](O)CNC2COC3(CCN(S(=O)(=O)c4cc(Cl)ccc4C#N)CC3)C2)c1 (stereo partly drawn) [Compound 145, 3-((2S)-3-(8-(5-chloro-2-cyanophenylsulfonyl)-1-oxa-8-azaspiro[4.5]decan-3-ylamino)-2-hydroxypropoxy)-N-methylbenzenesulfonamide] — 3.4-fold lower, 21.5 nM
- CCNS(=O)(=O)c1cccc(OC[C@@H](O)CNC2COC3(CCN(S(=O)(=O)c4ccc5c(c4)CCCC5)CC3)C2)c1 (stereo partly drawn) [Compound 231, N-ethyl-3-((2S)-2-hydroxy-3-(8-(5,6,7,8-tetrahydronaphthalen-2-ylsulfonyl)-1-oxa-8-azaspiro[4.5]decan-3-ylamino)propoxy)benzenesulfonamide] — within 1.5-fold, 72.6 nM
- CN(C)S(=O)(=O)c1cccc(OC[C@@H](O)CNC2COC3(CCN(S(=O)(=O)c4ccc(CN)cc4)CC3)C2)c1 (stereo partly drawn) [Compound 290, 3-((2S)-3-(8-(4-(aminomethyl)phenylsulfonyl)-1-oxa-8-azaspiro[4.5]decan-3-ylamino)-2-hydroxypropoxy)-N,N-dimethylbenzenesulfonamide] — 2.4-fold higher, 175 nM
- CNS(=O)(=O)c1cccc(OC[C@@H](O)CNC2COC3(CCN(S(=O)(=O)c4cccc(C)c4F)CC3)C2)c1 (stereo partly drawn) [Compound 160, 3-((2S)-3-(8-(2-fluoro-3-methylphenylsulfonyl)-1-oxa-8-azaspiro[4.5]decan-3-ylamino)-2-hydroxypropoxy)-N-methylbenzenesulfonamide] — 5-fold lower, 14.6 nM
- CNS(=O)(=O)c1cccc(OC[C@@H](O)CN[C@H]2COC3(CCN(S(=O)(=O)c4cnc5ccccc5c4)CC3)C2)c1 [Compound 336, 3-((S)-2-hydroxy-3-((R)-8-(quinolin-3-ylsulfonyl)-1-oxa-8-azaspiro[4.5]decan-3-ylamino)propoxy)-N-methylbenzenesulfonamide] — 4.8-fold lower, 15.3 nM
- CNS(=O)(=O)c1cccc(OC[C@@H](O)CNC2COC3(CCN(S(=O)(=O)c4cc(Cl)ccc4F)CC3)C2)c1 (stereo partly drawn) [Compound 144, 3-((2S)-3-(8-(5-chloro-2-fluorophenylsulfonyl)-1-oxa-8-azaspiro[4.5]decan-3-ylamino)-2-hydroxypropoxy)-N-methylbenzenesulfonamide] — 6-fold lower, 12.2 nM
- CNS(=O)(=O)c1cccc(OC[C@@H](O)CN[C@@H]2COC3(CCN(S(=O)(=O)c4cccc(-c5ccc(CNCCC(C)C)cc5)c4)CC3)C2)c1 [Compound 361, 3-((S)-2-hydroxy-3-((S)-8-(4′-((isopentylamino)methyl)biphenyl-3-ylsulfonyl)-1-oxa-8-azaspiro[4.5]decan-3-ylamino)propoxy)-N-methylbenzenesulfonamide] — 3.3-fold lower, 22.1 nM
- CNS(=O)(=O)c1cccc(OC[C@@H](O)CNC2COC3(CCN(S(=O)(=O)c4ccccc4F)CC3)C2)c1 (stereo partly drawn) [Compound 34, 3-((2S)-3-(8-(2-fluorophenylsulfonyl)-1-oxa-8-azaspiro[4.5]decan-3-ylamino)-2-hydroxypropoxy)-N-methylbenzenesulfonamide] — 3-fold lower, 24.2 nM
- CNS(=O)(=O)c1cccc(OC[C@@H](O)CN[C@H]2COC3(CCN(S(=O)(=O)c4cnc5c(c4)N(CCO)CCO5)CC3)C2)c1 [Compound 465, 3-((S)-2-hydroxy-3-((R)-8-(1-(2-hydroxyethyl)-2,3-dihydro-1H-pyrido[2,3-b][1,4]oxazin-7-ylsulfonyl)-1-oxa-8-azaspiro[4.5]decan-3-ylamino)propoxy)-N-methylbenzenesulfonamide] — 2.8-fold lower, 26.3 nM
- CNS(=O)(=O)c1cccc(OC[C@@H](O)CN[C@H]2COC3(CCN(S(=O)(=O)c4cnc5c(c4)[nH]c(=O)n5C)CC3)C2)c1 [Compound 518, 3-((S)-2-hydroxy-3-((R)-8-(3-methyl-2-oxo-2,3-dihydro-1H-imidazo[4,5-b]pyridin-6-ylsulfonyl)-1-oxa-8-azaspiro[4.5]decan-3-ylamino)propoxy)-N-methylbenzenesulfonamide] — 1.8-fold higher, 133 nM
- CN1CCOc2ncc(S(=O)(=O)N3CCC4(CC3)C[C@@H](NC[C@H](O)COc3cccc(S(=O)(=O)N[C@H]5CCC[C@@H]5O)c3)CO4)cc21 [Compound 427, 3-((S)-2-hydroxy-3-((R)-8-(1-methyl-2,3-dihydro-1H-pyrido[2,3-b][1,4]oxazin-7-ylsulfonyl)-1-oxa-8-azaspiro[4.5]decan-3-ylamino)propoxy)-N-((1S,2S)-2-hydroxycyclopentyl)benzenesulfonamide] — 2.5-fold higher, 184 nM
- CNS(=O)(=O)c1cccc(OC[C@@H](O)CNC2COC3(CCN(S(=O)(=O)c4ccc5occc5c4)CC3)C2)c1 (stereo partly drawn) [Compound 331, 3-((2S)-3-(8-(benzofuran-5-ylsulfonyl)-1-oxa-8-azaspiro[4.5]decan-3-ylamino)-2-hydroxypropoxy)-N-methylbenzenesulfonamide] — 3.7-fold lower, 19.6 nM
- CNS(=O)(=O)c1cccc(OC[C@@H](O)CNC2COC3(CCN(S(=O)(=O)c4ccc(OC)c(C)c4C)CC3)C2)c1 (stereo partly drawn) [Compound 242, 3-((2S)-2-hydroxy-3-(8-(4-methoxy-2,3-dimethylphenylsulfonyl)-1-oxa-8-azaspiro[4.5]decan-3-ylamino)propoxy)-N-methylbenzenesulfonamide] — 5.7-fold higher, 420 nM
- CCn1cc(-c2cccc(S(=O)(=O)N3CCC4(CC3)C[C@H](NC[C@H](O)COc3cccc(S(=O)(=O)NC)c3)CO4)c2)cn1 [Compound 282, 3-((S)-3-((S)-8-(3-(1-ethyl-1H-pyrazol-4-yl)phenylsulfonyl)-1-oxa-8-azaspiro[4.5]decan-3-ylamino)-2-hydroxypropoxy)-N-methylbenzenesulfonamide] — 4.7-fold lower, 15.5 nM
- CNS(=O)(=O)c1cccc(OC[C@@H](O)CNC2COC3(CCN(S(=O)(=O)c4ccc(N5CCCCC5)nc4)CC3)C2)c1 (stereo partly drawn) [Compound 421, 3-((2S)-2-hydroxy-3-(8-(6-(piperidin-1-yl)pyridin-3-ylsulfonyl)-1-oxa-8-azaspiro[4.5]decan-3-ylamino)propoxy)-N-methylbenzenesulfonamide] — 4.3-fold lower, 16.9 nM
- CNS(=O)(=O)c1cccc(OC[C@@H](O)CN[C@H]2COC3(CCN(S(=O)(=O)c4cnc5ncn(C)c5c4)CC3)C2)c1 [Compound 523, 3-((S)-2-hydroxy-3-((R)-8-(1-methyl-1H-imidazo[4,5-b]pyridin-6-ylsulfonyl)-1-oxa-8-azaspiro[4.5]decan-3-ylamino)propoxy)-N-methylbenzenesulfonamide] — 3.7-fold higher, 273 nM
- C[C@H](CO)NS(=O)(=O)c1cccc(OC[C@@H](O)CN[C@@H]2COC3(CCN(S(=O)(=O)c4cccc(-c5ccc(CN)cc5)c4)CC3)C2)c1 [Compound 424, 3-((S)-3-((S)-8-(4′-(aminomethyl)biphenyl-3-ylsulfonyl)-1-oxa-8-azaspiro[4.5]decan-3-ylamino)-2-hydroxypropoxy)-N—((R)-1-hydroxypropan-2-yl)benzenesulfonamide] — within 1.5-fold, 51.3 nM
- CNS(=O)(=O)c1cccc(OC[C@@H](O)CNC2COC3(CCN(S(=O)(=O)c4ccc(C#N)cc4Cl)CC3)C2)c1 (stereo partly drawn) [Compound 157, 3-((2S)-3-(8-(2-chloro-4-cyanophenylsulfonyl)-1-oxa-8-azaspiro[4.5]decan-3-ylamino)-2-hydroxypropoxy)-N-methylbenzenesulfonamide] — 2.8-fold lower, 26.4 nM

Reference: patent US11987588B2, “Modulators of the beta-3 adrenergic receptor useful for the treatment or prevention of heart failure and disorders related thereto” (Arena Pharmaceuticals, Inc., priority 2017, dated 2024)
